Assay results from patent US5412123A, “Anthraquinone and anthracene derivatives as inhibitors of the cell-adhesion molecules of the immune system” (Glycomed Incorporated, priority 1993, dated 1995).

Experiments:
E-selectin = assay: Inhibition of E-selectin IgG chimera binding to sLex on microtiter wells; conditions: FIG. 6; E-selectin 50 ng/ml; sennoside B from 2 mM, serial 1/2 dilutions; sLex 25 pm/well
Protocol: (§1) The capacity of the multivalent anthraquinone derivative, Sennoside B, to inhibit selectin binding to sLex was tested essentially as described by Foxall, C., et al J. Cell Biol., vol. 117, pages 895-902 (1992) using selectin IgG chimeras.
(§2) The following assay procedure was used. sLex at 25 pm/well was evaporated onto microtiter wells in MeOH and H2 O overnight. The plates were washed with H2 O and blocked with 5% BSA in PBS with 1 mM Ca for 1 hour. L-selectin was diluted to 35 ng/ml in 1% BSA PBS with 1 mM Ca and 1:1500 biotinylated goat F(ab') anti-human IgG Fc (CalTag, corp.) and streptavidin-alkaline phosphatase. E-selectin at 50 ng/ml and P-selectin at 750 ng/ml were similarly diluted with 1:1000 dilutions of biotinylated goat F(ab') anti-human IgG Fc and streptavidin-alkaline phosphatase. These were allowed to complex for 15 minutes at 37° C.
(§3) Part of each selectin solution was made 2 mM with sennoside B (obtained from Pfaltz and Bauer, Inc., Waterbury, Conn.) The most concentrated solutions were diluted with the selectin solution to yield 3 solutions each 1/2 as concentrated as the previous. The solutions with selectin and inhibitor were incubated for 45 minutes at 37° C. […]
(§4) Binding is expressed as "% of No Addition Control." That is, in some wells, no inhibitor was present, and the binding in these wells represents the maximum (100%) binding.

P-selectin = assay: Inhibition of P-selectin IgG chimera binding to sLex on microtiter wells; conditions: FIG. 8; P-selectin 750 ng/ml; sennoside B from 2 mM, serial 1/2 dilutions; sLex 25 pm/well
Protocol: as §1, §2, §3, §4

L-selectin = assay: Inhibition of L-selectin IgG chimera binding to sLex on microtiter wells; conditions: FIG. 7; L-selectin 35 ng/ml; sennoside B from 2 mM, serial 1/2 dilutions; sLex 25 pm/well
Protocol: as §1, §2, §3, §4

E-selectin binding to sLex (expressed as % of No Addition Control) (E-selectin): inhibited
P-selectin binding to sLex (expressed as % of No Addition Control) (P-selectin): most inhibited
L-selectin binding to sLex (expressed as % of No Addition Control) (L-selectin): inhibited
SMILES: O=C(O)c1cc(O)c2c(c1)[C@@H]([C@H]1c3cc(C(=O)O)cc(O)c3C(=O)c3c(O[C@@H]4O[C@H](CO)[C@@H](O)[C@H](O)[C@H]4O)cccc31)c1cccc(O[C@@H]3O[C@H](CO)[C@@H](O)[C@H](O)[C@H]3O)c1C2=O [Sennoside B]
